Test results reported in US20240075029A1, “LUMINOL FOR THE PROPHYLAXIS AND THE TREATMENT OF SEQUELAE OF A SARS-COV-2 INFECTION” (METRIOPHARM AG, priority 2020, published 2024).
Read-outs that look alike come from different tables or passages of the source.

How the values were obtained:
[1] = tested on: chronic fatigue; settings: human, in vivo
[2] = tested on: dyspnea; settings: human, in vivo
[3] = tested on: murine peritoneal macrophages
Excerpt: Female C57131/6 mice (6-8 weeks old) were purchased from Envigo (San Petro al Natisone, Udine, Italy) and housed under standard laboratory conditions (specific-pathogen free). Food and water were applied ad libitum. Animal handling and the study protocol were in accordance with international guidelines.
Four days after i.p. injection of 3% thioglycolate medium (w/v in distilled water; St Louis, MO USA), murine peritoneal macrophages (PM) were isolated according to the protocol of Zhang et al. (Curr. Protoc. Immunol. 2008, Chapter 14, Unit 14.1).
Briefly, cells were collected by injecting 10 ml of complete medium (DMEM/F12 Medium containing 10% fetal calf serum) into the peritoneal cavity using a 30 cc syringe attached to a 19-G needle, followed by slowly withdrawing the lavage fluid. Cells were washed twice in PBS (phosphate buffered saline) and counted.
One hour prior to LPS (lipopolysaccharide) stimulation (0.1 μg/ml; Escherichia coli 055:B5, St Louis, MO USA), cells (0.5×10^6 cells/well in 24-well plates with 1 ml total volume of medium) were pre-treated with scalar concentrations of 5-amino-2,3-dihydro-1,4-phthalazinedione sodium salt (ranging from 1 mM to 0.025 mM). Two independent experiments (each using cells pooled from three mice) were performed and secreted cytokine levels were determined 24, 48 and 72 h after LPS stimulation using ELISA technique.

[4] = tested on: joint pain; settings: human, in vivo
[5] = tested on: cigarette smoke-induced 3-nitrotyrosine formation in the lung parenchyma; settings: for 3-nitrotyrosine stained surface area, mean ± SEM: n=5
Excerpt: The isolated, ventilated and perfused mouse lung system (ILU) is an established model for studying acute effects of various conditions and drugs on lung parenchyma and vasculature. It is mainly used for examining effects of hypoxia and for evaluating the efficacy of potential drugs on the hypoxic pulmonary vasoreaction (cf. Weissmann et al. (2006) Proc Natl Acad Sci USA 103: 19093-19098).
C57BL/6J mice (n=25, 5 per group; male/female, 3-6 months, 20-30 g; Charles River GmbH, Sulzfeld, Germany) were anesthetized with a ketamine (100 mg/kg body weight) and xylazine (20 mg/kg body weight) intraperitoneal injection (Ceva Tiergesundheit GmbH, Dusseldorf, Germany) containing heparin (50 I.E. heparin/g body weight; Ratiopharm GmbH, Ulm, Germany). […] Lungs were ventilated in an isolated chamber using normoxic gas (21% O2, 5% CO2, 74% N2; 150 breaths per minute at the PEEP (positive end-expiratory pressure) of 3 cm H2O) and perfused with a modified Krebs-Henseleit buffer (120.0 mM NaCl, 4.3 mM KCl, 1.1 mM KH2PO4, 2.4 mM CaCl2, 1.3 mM MgCl2, 13.14 mM glucose, 0.25 mM hydroxyethyl starch 200000/0.5, 25.0 mM NaHCO3 adjusted to a constant pH range of […] L-arginine; Serag-Wissner GmbH & Co. KG, Naila, Germany) at a temperature of 37° C. Lung weight, right and left ventricle pressure, as well as ventilatory pressure were monitored and recorded during the whole experimental procedure. After 5-10 minutes, when the lung was properly flushed and all the parameters were stable, 5-amino-2,3-dihydro-1,4-phthalazinedione sodium salt was applied by adding 150 μl of a stock solution to 15 ml of the circulating perfusion buffer. The substance was applied 10 minutes prior to the first cigarette smoke application. Cigarette smoke was applied via trachea while lung is perfused with the buffer containing 5-amino-2,3-dihydro-1,4-phthalazinedione sodium salt. […] 50 ml of the cigarette smoke were taken via a syringe and applied to the lung via trachea (FIG. 4A) in deep breaths (periodic inflation for 3-4 s) over a period of 5 min. The application was done manually while carefully monitoring the inspiratory pressure to avoid damage of the lung. The cigarette smoke application was repeated three times with a 1 hour break in-between.
Five treatment groups (n=5, respectively) were investigated: • A: room air exposure • B: cigarette smoke+diluent (buffer solution) • C: cigarette smoke+0.5 mM 5-amino-2,3-dihydro-1,4-phthalazinedione sodium salt • D: cigarette smoke+1 mM 5-amino-2,3-dihydro-1,4-phthalazinedione sodium salt • E: cigarette smoke+2 mM 5-amino-2,3-dihydro-1,4-phthalazinedione sodium salt
5-amino-2,3-dihydro-1,4-phthalazinedione sodium salt Form I was dissolved in water for injection (vehicle) at the required concentrations described above. Stock solutions were prepared in water for injection. Further 1:100 dilutions were made with modified Krebs-Henseleit buffer (see above). Stock solutions were stored at −70° C. in appropriate aliquots. The required amount of stock solution was thawed, and the corresponding working solution was prepared for immediate use.
One hour after the third cigarette smoke application lungs were removed from the system and fixed by inflating with formalin solution (via trachea) at the pressure of 12-15 cm H2O for two hours at room temperature. Afterwards the fixed lungs were kept in PBS (phosphate buffer saline, see below) at +4° C. until further dehydration and paraffin embedding. Paraffin blocks were cut 3 μm thick, dried overnight at 37° C. and stained for 3-nitrotyrosine (3-NT).

[6] = tested on: SARS-CoV-2; settings: Vero B4 cell culture; Schumann et al. (2020); cited from earlier work
[7] = 1 mM, pre-treatment 1 h prior to LPS (0.1 μg/ml), LPS only = 100%, C57 mice PMs

Nc1cccc2c(=O)[nH][nH]c(=O)c12.[Na] [5-amino-2,3-dihydro-1,4-phthalazinedione sodium salt]
symptoms of chronic fatigue [1]: continuous waning of the symptoms | physical performance (dyspnea) [2]: continuous improvement of the physical performance | reduction of IL-1-beta level [3, 7]: ~50% | reduction of IL-6 level [3, 7]: ~80% | reduction of IL-12 level [3, 7]: ~60% | reduction of TNF-alpha level [3, 7]: about 40% | cytokine reduction in PMs of a second mouse strain (Balb/c) ([3]; Balb/c PMs, six concentrations ranging from 1 mM to 0.25 mM, data not shown): clear dose-dependency | cytokine secretion of unstimulated murine PMs ([3]; no LPS stimulation, data not shown): did not affect | joint pain [4]: continuous waning of the joint pain | cigarette smoke induced 3-nitrotyrosine formation (immunohistochemistry, in words) ([5]; 0.5 mM in perfusion buffer): moderate effect | cigarette smoke induced 3-nitrotyrosine formation (immunohistochemistry, in words) ([5]; 1 mM in perfusion buffer): almost completely abolished | cigarette smoke induced 3-nitrotyrosine formation (immunohistochemistry, in words) ([5]; 2 mM in perfusion buffer): almost completely abolished | 3-nitrotyrosine stained surface area, mean ± SEM ([5]; cigarette smoke + 0.5 mM in perfusion buffer): 2.24 ± 0.28 % area | 3-nitrotyrosine stained surface area, mean ± SEM ([5]; cigarette smoke + 1 mM in perfusion buffer): 0.72 ± 0.26 % area | 3-nitrotyrosine stained surface area, mean ± SEM ([5]; cigarette smoke + 2 mM in perfusion buffer): 0.37 ± 0.13 % area | replication of SARS-CoV-2 [6]: almost completely block
